How the values were obtained:
[1] = system: mice treated with scopolamine; experiment: Spontaneous alternation in Y-maze, scopolamine amnesia model; format: in vivo
Procedure: (§1) FIG. 5: Anti-amnesic effect of compound 3b in mice treated with scopolamine: (a, b) spontaneous alternation in Y-maze, and (c, d) passive avoidance. The mice were given compound 3b (0.03-1.5 mg/kg IP) 10 min before scopolamine (0.5 mg/kg SC), 20 min before the Y-maze session or passive avoidance training. Y-maze test: (a) spontaneous alternation and (b) total number of arm entries; retention of passive avoidance: (c) step-through latency and (d) escape latency. ANOVA: F(6.94)=5.32, p<0.0001 at (a); F(6.94)=10.6, p<0.0001 at (b); H=31.4, p<0.0001 at (c); H=24.3, p<0.001 at (d); n=12-19 per group. *p<0.05, **p<0.01, ***p<0.001 compared with group (Sc.Aβ+V); #p<0.05, ##p<0.01, ###p<0.001 compared with group (Aβ25-35+V); Dunnett test at (a, b) and Dunn at (c, d).
FIG. 6: Analysis of the antagonism of anti-amnesic effects of compound 3b in mice treated with scopolamine: (a, c, e) spontaneous alternation in Y-maze, and (b, d, f) step-through latency at recall session of passive avoidance. The mice were treated with methyllycaconitine (MLA, 1 or 3 mg/kg IP), dihydro-ß-erythroidine (DHßE, 1 or 3 mg/kg IP), or NE100 (1 mg/kg IP), simultaneously with compound 3b (0.1 mg/kg IP) 10 min before scopolamine (S, 0.5 mg/kg SC), 20 min before behavioural session. ANOVA: F(5.87)=7.19, p<0.0001 at (a); H=31.3, p<0.0001 at (b); F(5.82)=5.82, p<0.0001 at (c); H=28.8, p<0.0001 at (d); F(4.77)=10.0, p<0.0001 at (e); H=30.5, p<0.0001 at (f); n=12-17 per group. *p<0.05, **p<0.01, ***p<0.001 compared with group (Sc.Aβ+V); #p<0.05, ##p<0.01, ###p<0.001 compared with group (Aβ25-35+V); Dunnett test at (a, b) and Dunn at (c, d).
The animals were tested for spontaneous alternation performance in a Y-maze, an index of spatial working memory. The Y-maze was in grey PVC. Each arm was 40 cm long, 13 cm high, 3 cm wide at the base and 10 cm wide in the upper part, and converging at an equal angle. Each mouse was placed at one end of an arm and was able to move freely through the maze during an 8-min session. The series of arm entries, including any returns in the same arm were visually analysed. Alternation is defined as being consecutive entries in three different arms. The maximum number of alternations is therefore the total number of arm entries less two, and alternation percentage is calculated as (actual alternations/maximum possible alternations)×100. […]
(§2) Finally, a first mechanistic analysis of the pharmacological effect in vivo of compound 3b was carried out. With the objective of confirming that the compound, neuroprotective against amyloid toxicity, could also be anti-amnesic in a pharmacological amnesia model, we first determined its effectiveness against the amnesic effects of scopolamine. […]

[2] = system: mice treated with scopolamine; experiment: Passive avoidance, scopolamine amnesia model; format: in vivo
Procedure: as §1
FIG. 6: Analysis of the antagonism of anti-amnesic effects of compound 3b in mice treated with scopolamine: (a, c, e) spontaneous alternation in Y-maze, and (b, d, f) step-through latency at recall session of passive avoidance. The mice were treated with methyllycaconitine (MLA, 1 or 3 mg/kg IP), dihydro-ß-erythroidine (DHßE, 1 or 3 mg/kg IP), or NE100 (1 mg/kg IP), simultaneously with compound 3b (0.1 mg/kg IP) 10 min before scopolamine (S, 0.5 mg/kg SC), 20 min before behavioural session. […]
The apparatus contained two compartments (15×20×15 cm in height) with one light part having walls in white PVC and the other dark with walls in black PVC and a grid floor. […] Step-through latency (STL) i.e. the time taken to enter the dark compartment and the number of cries, were recorded. […] Step-through latency was recorded up to 300 s.
as §2

[3] = system: mice; experiment: Forced swim test; format: in vivo
Procedure: FIG. 13: Assays of compound 3b as positive modulator of the sigma-1 protein. […] Male Swiss mice aged 7 weeks (n=10-12 per group) were forced to swim for 15 min on Day 1 and 6 min on Day 2. They were given NE-100 (10 mg/kg ip), 10 min before compound 3b (10 mg/kg ip) and 20 min before the session of Day 2. Immobility was measured over the last 5 minutes of the session. The vehicle solution was distilled water. F(3.42)=4.45, p<0.01; **p<0.01 vs. group V/V, ##p<0.01 vs. group V/3b, Dunnet test. […] Wild-type mice (Wt, n=14-15) and S1R KO mice (n=9-10) were forced to swim 15 min on Day 1 and 6 min on Day 2. They were given compound 3b (10 mg/kg ip) 20 min before the session on Day 2. Immobility was measured during the last 5 minutes of the session. The vehicle solution was distilled water. F(3.49)=6.64, p<0.001; **p<0.01 vs. group Wt/V, Dunnett test. […] Male Swiss mice aged 7 weeks (n=8-23 per group) were forced to swim for 15 min on Day 1 and 6 min on Day 2. They were given igmesine (10, 30 mg/kg ip) and/or compound 3b (10 mg/kg ip) 20 min before the session on Day 2. NE-100 (10 mg/kg ip) was injected 10 min before igmesine and compound 3b. Immobility was measured during the last 5 minutes of the session. The vehicle solution was distilled water. F(6.90)=5.59, p<0.0001; ***p<0.001 vs. group V, ##p<0.01 vs. group V/Igmesine (10)+3B (5), Dunnett test.

[4] = system: mice treated with peptide Aβ25-35; experiment: In vivo screening of derivatives as neuroprotectors (spontaneous alternation, passive avoidance, ROS level), Aβ25-35 model; conditions: 0.3 mg/kg IP
Procedure: FIG. 7: Screening of phosphinolactones as neuroprotectors in mice treated with peptide Aβ25-35: (a) spontaneous alternation; (b) passive avoidance step-through latency; (c) Levels of reactive oxygen species in hippocampus. The mice were given compound 3b (0.3, 0.7 mg/kg IP) or a dose of each compound (0.3 mg/kg IP) 20 min before I′Aβ25-35 or the control peptide Sc.Aβ (9 nmol ICV). The animals were tested in the Y-maze on Day 7 after the ICV injections and for passive avoidance on Days 8-9, and then sacrificed. In each graph at (a-c), the 50% protection level compared with the deficit induced by Aβ25-35 is plotted as a dotted line. It is to be noted that at (a), the column represents the median and the error bars represent the deviations 25%-75% (=asymmetric deviations). n=12 at (a, b) and 5-6 at (c). ANOVA on groups 1-4: F(3.63)=7.95, p<0.001 at (b); H=24.1, p<0.0001 at (c); F(3.44)=6.33, p<0.01 at (d). *p<0.05, **p<0.01, ***p<0.001 compared with group (Sc.Aβ+V); #p<0.05, ##p<0.01, ###p<0.001 compared with group (Aβ25-35+V); Dunnett test at (a, c) and Dunn at (b). The values of the groups 5-12 (screened compounds) were analysed by t-test at (a, c) or Mann-Whitney at (b).
From the molecules derived from the synthesis, a panel of 8 derivatives was selected and screened for potential neuroprotective efficacy. The compounds were injected at a dose of 0.3 mg/kg IP, i.e. the maximum non-active dose of 3b and compared with 3b injected at 0.3 and 0.7 mg/kg IP. The compounds were injected […] before the Aß25-35 peptide, and the mice were tested for spontaneous alternation on Day 7, passive avoidance on Days 8 and 9 and the ROS level was measured in the hippocampus (FIG. 7). For each response (spontaneous alternation: FIG. 7a; step-through latency in passive avoidance: FIG. 7b, and DCF fluorescence level: FIG. 7c), a 50% level of the effect between the values of the ScAß and Aß25-35 animals was taken as criterion of efficacy. […] Compound 3c is an isomer at the position of the chlorine atom of 3b. Regarding compound 3n, this has a 5-pyrimidyl group attached to the phosphorus atom, and for compound 3l it is a 4-pyridinyl group.

[5] = system: mice treated with Aβ25-35; conditions: IP; Aβ25-35 model; cited from earlier work
[6] = antagonist 1 mg/kg IP with 3b 0.1 mg/kg IP
[7] = antagonist at the two doses tested (1 or 3 mg/kg IP) with 3b 0.1 mg/kg IP

SMILES: CCCN(CCC)CCc1ccc(OC)c(OCCc2ccccc2)c1 [NE100]
- antagonism of the anti-amnesic effect of compound 3b, spontaneous alternation [1, 6]: blocked the effect of compound 3b
- antagonism of the anti-amnesic effect of compound 3b, passive avoidance [2, 6]: attenuated the effect
- blockade of the antidepressant effect of compound 3b ([3]; NE-100 10 mg/kg ip, 10 min before 3b 10 mg/kg ip): blocked

SMILES: CO[C@H]1CC=C2CCN3CCC4=C(CC(=O)OC4)[C@]23C1 [DhßE, dihydro-β-erythroidine]
- antagonism of the anti-amnesic effect of compound 3b, spontaneous alternation [1, 7]: ineffective
- antagonism of the anti-amnesic effect of compound 3b, passive avoidance [2, 7]: ineffective

SMILES: CC1(C)COP(=O)(c2ccncc2)C(C)(C)N1 (racemic) [Compound 3l, (±)-2-(Pyridin-4-yl)-2-oxo-3,3,5,5-tetramethyl-[1,4,2]-oxazaphosphinane]
- criterion of efficacy: 50% level of the effect between ScAβ and Aβ25-35 animals (spontaneous alternation, step-through latency, DCF fluorescence) [4]: met the criterion for the 3 parameters

SMILES: CCC(C/C=C/c1ccccc1)(c1ccccc1)N(C)CC1CC1 (centres unmarked) [igmesine]
- activity in forced swim test ([3]; 10 mg/kg): not active

SMILES: CCN1C[C@]2(COC(=O)c3ccccc3N3C(=O)C[C@H](C)C3=O)CC[C@H](OC)[C@@]34[C@@H]5C[C@H]6[C@H](OC)[C@@H]5[C@](O)(C[C@@H]6OC)[C@@](O)([C@@H](OC)[C@H]23)[C@@H]14 [MLA, methyllycaconitine]
- antagonism of the anti-amnesic effect of compound 3b, spontaneous alternation ([1]; antagonist 3 mg/kg IP with 3b 0.1 mg/kg IP): blocked the anti-amnesic effect of compound 3b
- antagonism of the anti-amnesic effect of compound 3b, passive avoidance [2, 6]: attenuated the effect

SMILES: CC12CC3CC(C)(C1)CC(N)(C3)C2 [memantine]
- active dose of reference molecules in this model [5]: 1 mg/kg

SMILES: CC1(C)COP(=O)(c2cncnc2)C(C)(C)N1 (racemic) [Compound 3n, (±)-2-(Pyrimidin-5-yl)-2-oxo-3,3,5,5-tetramethyl-[1,4,2]-oxazaphosphinane]
- criterion of efficacy: 50% level of the effect between ScAβ and Aβ25-35 animals (spontaneous alternation, step-through latency, DCF fluorescence) [4]: met the criterion for the 3 parameters
